Source: patent US20040180819A1, “Characterization of a membrane estrogen receptor” (priority 2001, published 2004)

What was measured:
mER receptor = assay: Saturation binding / Scatchard analysis, D12 membrane (P2) fraction; set-up: species or system rat
Method: (§1) Briefly, cells were harvested in a binding buffer (10 mM Tris-HCl, 1 mM EDTA, 1 mM DTT; pH=7.2) containing 5 μg/ml protease inhibitors (aprotinin, leupeptin, phosphoramidon, PMSF, pepstatin), pelleted to remove cell media and then homogenized by mechanical disruption (polytron; speed 6 for 10 sec). Unlysed cells and debris were removed by centrifugation at 15,000×g for 15 min at 4° C. The resulting supernatant was homogenized and membranes were isolated by centrifugation at 100,000×g for 1 h at 4° C. The supernatant obtained following the high speed spin was labeled S2 (cytosol) while the pellet was labeled P2 (membranes). The pellet (P2) was resuspended using a glass homogenizer in 3 ml of 0.25 M sucrose in binding buffer. The sucrose gradient was layered in a 15 ml centrifuge tube starting with 41%, 25%, and 10% sucrose using J tubes. The P2 sample was added to the top and the remaining layer was capped with binding buffer. The tubes were centrifuged at 35,000×g for 1 h, placed in a fraction collector (bottom tube draw) and 500 μl samples were collected. Protein concentrations were determined with BCA reagent (Pierce). […] Statistical significance between IC50s and KDs was determined using a pair-wise Z-test. […]

ERα receptor = biological target: T1, ERα receptor (Rattus norvegicus, UniProt P06211); assay: Saturation binding / Scatchard analysis, D12 cytosolic (S2) fraction
T1 sequence (P06211 1-600): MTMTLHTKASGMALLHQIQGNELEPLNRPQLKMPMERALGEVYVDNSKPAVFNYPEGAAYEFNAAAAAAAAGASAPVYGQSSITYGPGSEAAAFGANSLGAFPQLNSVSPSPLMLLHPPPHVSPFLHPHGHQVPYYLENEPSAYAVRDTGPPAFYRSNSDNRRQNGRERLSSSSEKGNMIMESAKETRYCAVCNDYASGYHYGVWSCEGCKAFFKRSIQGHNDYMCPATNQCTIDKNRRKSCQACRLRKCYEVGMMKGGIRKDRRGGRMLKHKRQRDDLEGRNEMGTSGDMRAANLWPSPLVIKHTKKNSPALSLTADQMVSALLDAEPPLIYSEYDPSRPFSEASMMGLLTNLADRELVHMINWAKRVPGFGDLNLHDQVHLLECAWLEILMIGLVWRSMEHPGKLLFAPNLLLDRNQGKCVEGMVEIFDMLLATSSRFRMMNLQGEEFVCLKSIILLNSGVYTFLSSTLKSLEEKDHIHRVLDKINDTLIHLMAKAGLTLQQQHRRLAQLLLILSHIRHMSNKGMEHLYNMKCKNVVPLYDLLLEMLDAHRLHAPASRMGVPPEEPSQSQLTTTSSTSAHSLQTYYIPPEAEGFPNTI
Method: as §1

C[C@]12CC[C@@H]3c4ccc(O)cc4CC[C@H]3[C@@H]1C[C@@H]([125I])[C@@H]2O [[^125I]-16α-iodo-3,17β-E2, [^125I]-16-α-iodo-3,17-βestradiol]
Kd (mER receptor): 0.118 ± 0.0436 nM
slope value (ERα receptor; S2 fraction): 0.8
Kd (ERα receptor; cytosolic (S2) binding): 0.124 ± 0.0171 nM
